Converted amounts (≈) assume the structure as drawn.
Experiments:
Water solubility (pH 5) = details: for Water solubility: pH 5; for solubility: pH 5, water
[1] = Pharmacokinetic study of Compound (XI) after topical administration (Example 3); format: in vivo, Dutch-Belted rabbits; details: eyedrops 1% API, 50 μL BID for 3 days; rabbit
Method: A formulation was prepared as in Example 1 but using Compound (XI) instead of Compound (V). Compound (XI) was administered as eyedrops (1% API, 50 μL) BID for 3 days. On day 3 following a single dose, rabbits were sacrificed, enucleated and various ocular tissues (retina, choroid, cornea, etc) collected. Concentrations in the tissues were measured using LC/MS/MS, following tissue homogenization and acetonitrile precipitation. PK data analysis was conducted using WINNONLIN program. […] Half-life was long at approximately 8 hours.

[2] = Pharmacokinetic study of Compound (V) after topical administration (Example 4); format: in vivo, Dutch-Belted rabbits; details: 50 μL topical, 0.5% dose, QD for one day; rabbit
Method: A formulation containing Compound (V) prepared as described in Example 1 was used in this experiment. 50 μL of Compound (V) (QD for one day) was administered topically to rabbits at 0.5% dose. Ocular tissues such as choroid, retina, sclera and cornea were collected and concentrations measured. Choroidal concentrations were 4 fold higher than retinal concentration.

[3] = Pharmacokinetic study of Compounds (X) and (VIII) after topical administration (Example 12); format: in vivo, Dutch-Belted rabbits; details: Compound (V) after prodrug Compound (VIII) delivered topically to the eye
Method: Formulations prepared as described in Example 9 and 11 were used. Compounds (X) and (VIII) were administered as eyedrops (50 μL) either as QD for three days or BID for three days as the dose regimen.
The retinal concentrations varied depending on the formulation used. The cLogD at pH of 7.4 for Compound (VIII) is 0.14 while for Compound (X) is 3.54.

[4] = test system: VEGF-induced retinal permeability; experiment: Ocular model of retinal edema following eyedrops (Evans Blue albumin leakage); format: in vivo; details: mice
Method: Formulations prepared as described in Examples 20 and 21 were used in these studies. Topical eyedrops of Compound (V) (one time or three times a day), or Compound (VI) (single eye drop) were administered to mice. After 1-2 hr, VEGF was injected intravitreally into mouse eyes. An hour later Evans Blue dye was injected intravenously into the tail vein. About 4 hrs later animals were sacrificed, blood was collected and eyes were enucleated. VEGF-induced retinal permeability as measured by albumin leakage in the eye was measured.

[5] = Pharmacokinetic study of Compound (VI) after topical administration (Example 8); format: in vivo, Lone Evans rat pups; details: Compound (V) analysed after single 10 μL eyedrops of 0.2, 0.5 or 1% Compound (VI)
Method: Formulations prepared as described in Example 5 were used. Rat pups were administered single 10 μL eyedrops of 0.2, 0.5 or 1% Compound (VI) dose. Eye tissues were collected at various time points for Compound (V) analysis using LC/MS/MS. […] Half-life of Compound (V) ranged from 5 to 8 hours in the choroids.

[6] = test system: choroidal neovascularization; experiment: Laser-induced choroidal neovascularization model; format: in vivo, C57BL/6 mice; details: for Reduction of area of neovascularization compared to control: topical
Method: After 2 weeks, mice were perfused with fluorescein-labeled dextran, and choroidal flatmounts were analyzed using image analysis software to recognize fluorescently stained neovascularization and calculate the total area of neovascularization per retina.

[7] = Pharmacokinetic study of Compound (VI) after topical administration (Example 14); format: in vivo, Dutch-Belted rabbits; details: BID for three days vs QD for three days, 1% dose
Method: A formulation prepared as described in example 13 was used. Compound (VI) was administered topically (50 μL) to rabbits either as BID for three days or QD for three days dose regimen (1% dose).

[8] = Phospholipid affinity PC:Drug (molar); format: physicochemical; details: molar ratio PC:Drug

Compound | solubility (Water solubility (pH 5); water) | further results
Cc1cc(Nc2ncc3cc(-c4c(Cl)cccc4Cl)c(=O)n(C)c3n2)ccc1F [PD180970, reference compound] | – | Water solubility (Water solubility (pH 5)): <<0.1 mg/mL
Cc1cc(-c2cc(O)ccc2Cl)cc2nnc(Nc3ccc(OCCN4CCCC4)cc3)nc12 [V] | < 0.1 mg/mL | Concentrations in the choroid [1]: at the μM level; Choroidal concentration relative to retinal concentration [2]: 4 fold; Half-life (comparison) [2]: about two times longer; Amount of API recovered from the retina and the choroid [3]: No measurable amount; Inhibition of retinal leak ([4]; QD eyedrop administration): 50%; Inhibition of retinal leak ([4]; TID eyedrop dosing): ~80%; Concentrations in the retina, dose dependence [5]: non-linear; Mean AUC in the choroid, dose dependence [5]: linear
Cc1ccc(-c2nn(C(C)(C)C)c3ncnc(N)c23)cc1 [PP1, reference compound] | – | Water solubility (Water solubility (pH 5)): <0.1 mg/mL
CC1(C)O[C@@H]2C[C@H]3[C@@H]4CCC5=CC(=O)C=C[C@]5(C)[C@@]4(F)[C@@H](O)C[C@]3(C)[C@]2(C(=O)CO)O1 [TAA, reference compound] | – | Water solubility (Water solubility (pH 5)): <0.1 mg/mL
Cc1cc(-c2cc(OC(=O)c3ccccc3)ccc2Cl)cc2nnc(Nc3ccc(OCCN4CCCC4)cc3)nc12 [VI] | < 0.1 mg/mL | Reduction of area of neovascularization compared to control ([6]; 50 μg per eye): approximately 47%; Reduction of area of neovascularization compared to control ([6]; 150 μg per eye): approximately 35%; Effect on choroidal neovascularization (FIG. 2) ([6]; topical administration): prevents choroidal neovascularization; Inhibition of retinal leak ([4]; QD eyedrop administration): 100%; Back of the eye concentrations, dependence on dose regimen [7]: linear
COc1ccc(Cl)c(Nc2ncnc3cc(OCC4CCN(C)CC4)c(OC)cc23)c1 [AZM475271, reference compound] | < 0.1 mg/mL | Phospholipid affinity PC: Drug (molar) [8]: 50.73
Cc1cc(-c2cc(OC(=O)c3ccccc3)ccc2Cl)cc2nnc(Nc3ccc(S(=O)(=O)NCCN4CCCC4)cc3)nc12 [XVIII] | < 0.1 mg/mL | –
Cc1cc(-c2cc(O)ccc2Cl)cc2nnc(Nc3ccc(S(=O)(=O)NCCN4CCCC4)cc3)nc12 [VII] | < 0.1 mg/mL | –
Cc1cc(-c2cc(OP(=O)([O-])[O-])ccc2Cl)cc2nnc(Nc3ccc(OCCN4CCCC4)cc3)nc12.[Na+].[Na+] [XII] | < 0.1 mg/mL | –
Cc1cccc(C)c1-c1cc(C)c2nc(Nc3ccc(OCCN4CCCC4)cc3)nnc2c1 [IV] | < 0.1 mg/mL | –
C=CC[C@@H]1/C=C(\C)C[C@H](C)C[C@H](OC)[C@H]2O[C@@](O)(C(=O)C(=O)N3CCCC[C@H]3C(=O)O[C@H](/C(C)=C/[C@@H]3CC[C@@H](O)[C@H](OC)C3)[C@H](C)[C@@H](O)CC1=O)[C@H](C)C[C@@H]2OC [Tacrolimus, reference compound] | < 0.1 mg/mL | –
Cc1cccc(C)c1-c1cc(C)c2nc(Nc3ccc(S(=O)(=O)NCCN4CCCC4)cc3)nnc2c1 [XIII] | < 0.1 mg/mL | –
CCN(CC)CCNC(=O)c1c(C)[nH]c(/C=C2\C(=O)Nc3ccc(F)cc32)c1C [Su11248, reference compound] | > 1 mg/mL | –
Tropicamide [reference compound] | – | Water solubility (Water solubility (pH 5)): <1 mg/mL
Brc1c(NC2=NCCN2)ccc2nccnc12 [Brimonidine, reference compound] | > 2 mg/mL | –
Cc1ccc(C(=O)Oc2ccc(Cl)c(-c3cc(C)c4nc(Nc5ccc(OCCN6CCCC6)cc5)nnc4c3)c2)cc1 [XIX] | < 0.1 mg/mL | –
CP(C)(=O)c1ccc(Nc2nc(C3CCCC3)nc3c2ncn3CCc2cccc(O)c2)cc1 [AP23464, reference compound] | – | Water solubility (Water solubility (pH 5)): >0.1 mg/mL
CC(C)CCC[C@@H](C)[C@H]1CC[C@H]2[C@@H]3CC=C4C[C@@H](O)CC[C@]4(C)[C@H]3CC[C@]12C [Cholesterol, reference compound] | < 1 mg/mL | –
CC(=O)Nc1nnc(S(N)(=O)=O)s1 [Acetazolamide, reference compound] | < 1 mg/mL | –
Cc1cc(-c2cc(O)ccc2Br)cc2nnc(Nc3ccc(S(=O)(=O)NCCN4CCCC4)cc3)nc12 [XV] | < 0.1 mg/mL | –
Cc1cc(-c2c(Cl)ccc(O)c2Cl)cc2nnc(Nc3ccc(S(=O)(=O)NCCN4CCCC4)cc3)nc12 [XVI] | < 0.1 mg/mL | –
CC(=O)Oc1ccc(Cl)c(-c2cc(C)c3nc(Nc4ccc(OCCN5CCCC5)cc4)nnc3c2)c1 [XVII] | < 0.1 mg/mL | –
Nc1nc(O)c2nc(-c3cccc(O)c3)c(-c3cccc(O)c3)nc2n1 [XXI] | < 0.1 mg/mL | –
CC(C)NCC(O)COc1cccc2ccccc12 (stereo not drawn) [propanolol, reference compound] | – | solubility (Water solubility (pH 5)): ~0.1 mg/mL (≈ 386 µM)
Cc1cc(-c2cc(OC(=O)C(C)(C)C)ccc2Cl)cc2nnc(Nc3ccc(OCCN4CCCC4)cc3)nc12 [X] | < 0.1 mg/mL | –
Clc1ccc(Nc2nnc(Cc3ccncc3)c3ccccc23)cc1 [Vatalanib, reference compound] | > 2 mg/mL | Phospholipid affinity PC: Drug (molar) [8]: Not stable
Cc1cc(-c2cc(OC(=O)C(C)C)ccc2Cl)cc2nnc(Nc3ccc(OCCN4CCCC4)cc3)nc12 [XX] | < 0.1 mg/mL | –
COc1cc(Nc2c(C#N)cnc3cc(OCCCN4CCN(C)CC4)c(OC)cc23)c(Cl)cc1Cl [SKI606, reference compound] | < 1 mg/mL | –
Cc1cc(-c2c(Cl)cccc2Cl)cc2nnc(Nc3ccc(OCCN4CCCC4)cc3)nc12 [XI] | < 0.1 mg/mL | –
O=C(Nc1cnc(Nc2cccc(OCCN3CCCC3)c2)nc1)c1c(Cl)cccc1Cl [I] | < 0.1 mg/mL | –
